Reference: patent US11999758B2, “Inhibitors of the YAP/TAZ-TEAD interaction and their use in the treatment of cancer” (INVENTIVA, priority 2018, dated 2024)
Each block holds one compound with its values, some of them ahead of it.

Biological target: T1, YAP-TEAD interaction (Homo sapiens, UniProt P28347)
T1 construct: expressed in transfected cells; host or cells: HEK293 GripTite 293 MSR (Invitrogen R795-07)
Assay: Cell-based TEAD-GAL4 transactivation assay (luciferase reporter)
Details: HEK293 cells transfected with TEAD1-Gal4, YAP mutant (S127A, S397A) and luciferase reporter, compounds 0.1 μM to 30 μM; for Emax: HEK293, 24 h, read-out: TEAD-GAL4 Transactivation activity Max Act; for IC50: 24 h
Outline: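 HEK293 cells transiently transfected with Gal4-DBD–full-length human TEAD1, full-length YAP S127A/S397A (YAP/TEAD ratio 10) and a 5×GAL4-RE TK-luciferase reporter. Six hours later, compounds added semi-log from 0.1 to 30 μM (DMSO 0.5% control) for 24 h. Luciferase read; IC50 from 3-parameter fit.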

T1 sequence (P28347 whole entry): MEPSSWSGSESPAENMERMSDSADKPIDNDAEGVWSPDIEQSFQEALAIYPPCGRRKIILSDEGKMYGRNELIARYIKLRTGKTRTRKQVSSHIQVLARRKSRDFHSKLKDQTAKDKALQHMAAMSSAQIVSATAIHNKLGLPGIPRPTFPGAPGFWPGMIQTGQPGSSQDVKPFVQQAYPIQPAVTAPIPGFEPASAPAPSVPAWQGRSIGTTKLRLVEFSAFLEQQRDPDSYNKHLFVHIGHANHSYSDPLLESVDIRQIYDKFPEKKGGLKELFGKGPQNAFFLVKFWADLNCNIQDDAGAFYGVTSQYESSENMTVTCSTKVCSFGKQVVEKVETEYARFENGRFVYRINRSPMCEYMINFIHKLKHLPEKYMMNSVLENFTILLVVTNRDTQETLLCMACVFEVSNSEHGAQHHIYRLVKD

Compound: COc1cc(/C=N/N(CC(C)C)c2ncnc3cc(F)ccc23)ccc1B(O)O [Ex 18, [4-[(E)-[(7-fluoroquinazolin-4-yl)-isobutyl-hydrazono]methyl]-2-methoxyphenyl] boronic acid]
Emax: 80% | IC50: 2180 nM

Compound: COc1ccc2ncnc(N(CC(C)C)/N=C/c3ccc(B(O)O)c(OC)c3)c2c1 [Ex 19, [4-[(E)-[isobutyl-(6-methoxyquinazolin-4-yl)hydrazono]methyl]-2-methoxyphenyl] boronic acid]
Emax: 97% | IC50: 3360 nM

Compound: CCN(/N=C/c1ccc(B(O)O)c(OC)c1)c1ncnc2c(OC)cccc12 [Ex 21, [4-[(E)-[ethyl-(8-methoxyquinazolin-4-yl)hydrazono]methyl]-2-methoxy-phenyl]boronic acid]
Emax: 90% | IC50: 1770 nM

Compound: COc1cc(/C=N/N(C)c2ncnc3c(OC)cccc23)ccc1B(O)O [Ex 22, [2-methoxy-4-[(E)-[(8-methoxyquinazolin-4-yl)-methyl-hydrazono]-methyl]phenyl]boronic acid]
Emax: 97% | IC50: 2570 nM

Compound: CC(C)CN(/N=C/c1ccc2c(c1)COB2O)C1=NS(=O)(=O)c2ccccc21 [Ex 23, N-[(E)-(1-hydroxy-3H-2,1-benzoxaborol-5-yl)methyleneamino]-N-isobutyl-1,1-dioxo-1,2-benzothiazol-3-amine]
Emax: 88% | IC50: 3110 nM

Compound: COCCCN(/N=C/c1ccc2c(c1)COB2O)C1=NS(=O)(=O)c2ccccc21 [Ex 25, N-[(E)-(1-hydroxy-3H-2,1-benzoxaborol-5-yl)methyleneamino]-N-(3-methoxypropyl)-1,1-dioxo-1,2-benzothiazol-3-amine]
Emax: 78% | IC50: 2780 nM

Compound: CN(/N=C/c1ccc2c(c1)COB2O)C1=NS(=O)(=O)c2ccccc21 [Ex 26, N-[(E)-(1-hydroxy-3H-2,1-benzoxaborol-5-yl)methyleneamino]-N-methyl-1,1-dioxo-1,2-benzothiazol-3-amine]
Emax: 78% | IC50: 3410 nM

Compound: CC(C)CN(/N=C/c1ccc2c(c1)COB2O)C1=NS(=O)(=O)c2ccc(F)cc21 [Ex 28, 5-fluoro-N-[(E)-(1-hydroxy-3H-2,1-benzoxaborol-5-yl)methyleneamino]-N-isobutyl-1,1-dioxo-1,2-benzothiazol-3-amine]
Emax: 90% | IC50: 2750 nM

Compound: Cc1ccc2c(c1)C(N(CC(C)C)/N=C/c1ccc3c(c1)COB3O)=NS2(=O)=O [Ex 29, N-[(E)-(1-hydroxy-3H-2,1-benzoxaborol-5-yl)methyleneamino]-N-isobutyl-5-methyl-1,1-dioxo-1,2-benzothiazol-3-amine]
Emax: 91%

Compound: COc1ccc2c(c1)S(=O)(=O)N=C2N(CC(C)C)/N=C/c1ccc2c(c1)COB2O [Ex 30, N-[(E)-(1-hydroxy-3H-2,1-benzoxaborol-5-yl)methyleneamino]-N-isobutyl-6-methoxy-1,1-dioxo-1,2-benzothiazol-3-amine]
Emax: 86% | IC50: 3840 nM

Compound: COc1cccc2c(N(CC(C)C)/N=C/c3ccc4c(c3)COB4O)ncnc12 [Ex 32, N-[(E)-(1-hydroxy-3H-2,1-benzoxaborol-5-yl)methyleneamino]-N-isobutyl-8-methoxy-quinazolin-4-amine]
Emax: 86% | IC50: 1590 nM

Compound: COc1cccc2c(N(C)/N=C/c3ccc4c(c3)COB4O)ncnc12 [Ex 33, N-[(E)-(1-hydroxy-3H-2,1-benzoxaborol-5-yl)methyleneamino]-8-methoxy-N-methyl-quinazolin-4-amine]
Emax: 86% | IC50: 4000 nM

Compound: CCN(/N=C/c1ccc2c(c1)COB2O)c1ncnc2c(OC)cccc12 [Ex 34, N-ethyl-N-[(E)-(1-hydroxy-3H-2,1-benzoxaborol-5-yl)methyleneamino]-8-methoxy-quinazolin-4-amine]
Emax: 81% | IC50: 1120 nM

Compound: CC(C)CN(/N=C/c1ccc2c(c1)COB2O)c1ncnc2ccsc12 [Ex 35, N-[(E)-(1-hydroxy-3H-2,1-benzoxaborol-5-yl)methyleneamino]-N-isobutyl-thieno [3,2-d]pyrimidin-4-amine]
Emax: 87% | IC50: 1360 nM

Compound: Cc1ccc2c(c1)C(N(C)/N=C/c1ccc3c(c1)COB3O)=NS2(=O)=O [Ex 36, N-[(E)-(1-hydroxy-3H-2,1-benzoxaborol-5-yl)methyleneamino]-N,5-dimethyl-1,1-dioxo-1,2-benzothiazol-3-amine]
Emax: 60%

Compound: COc1ccc2c(c1)C(N(C)/N=C/c1ccc3c(c1)COB3O)=NS2(=O)=O [Ex 37, N-[(E)-(1-hydroxy-3H-2,1-benzoxaborol-5-yl)methyleneamino]-5-methoxy-N-methyl-1,1-dioxo-1,2-benzothiazol-3-amine]
Emax: 92% | IC50: 4550 nM

Other lines, results leading:

Emax: 81% | IC50: 510 nM
Compound: CCN(/N=C/c1ccc2c(c1)COB2O)c1ncnc2ccsc12 [Ex 38, N-ethyl-N-[(E)-(1-hydroxy-3H-2,1-benzoxaborol-5-yl)methyleneamino]-thieno[3,2-d]pyrimidin-4-amine]

Emax: 85% | IC50: 690 nM
Compound: CCN(/N=C/c1ccc2c(c1)COB2O)c1ncnc2sccc12 [Ex 40, N-ethyl-N-[(E)-(1-hydroxy-3H-2,1-benzoxaborol-5-yl)methyleneamino]-thieno[2,3-d]pyrimidin-4-amine]

Emax: 83% | IC50: 570 nM
Compound: CCN(/N=C/c1ccc2c(c1)COB2O)c1ncnc2c1cnn2C [Ex 41, N-ethyl-N-[(E)-(1-hydroxy-3H-2,1-benzoxaborol-5-yl)methyleneamino]-1-methyl-pyrazolo[3,4-d]pyrimidin-4-amine]

Emax: 78% | IC50: 920 nM
Compound: CCN(/N=C/c1ccc2c(c1)COB2O)c1ncnc2c1ccn2C [Ex 44, N-ethyl-N-[(E)-(1-hydroxy-3H-2,1-benzoxaborol-5-yl)methyleneamino]-7-methyl-pyrrolo[2,3-d]pyrimidin-4-amine]

Emax: 63% | IC50: 1020 nM
Compound: CCN(/N=C/c1ccc2c(c1)COB2O)c1nc(C)nc2ccsc12 [Ex 45, N-ethyl-N-[(E)-(1-hydroxy-3H-2,1-benzoxaborol-5-yl)methyleneamino]-2-methyl-thieno[3,2-d]pyrimidin-4-amine]

Emax: 72%
Compound: CC(C)CN(/N=C/c1ccc2c(c1)CCOB2O)C1=NS(=O)(=O)c2ccccc21 [Ex 46, N-[(E)-(1-hydroxy-3,4-dihydro-2,1-benzoxaborinin-6-yl)methyleneamino]-N-isobutyl-1,1-dioxo-1,2-benzothiazol-3-amine]

Emax: 73%
Compound: CC(C)CN(/N=C/c1ccc2c(c1)CCCOB2O)C1=NS(=O)(=O)c2ccccc21 [Ex 47, N-[(E)-(1-hydroxy-4,5-dihydro-3H-2,1-benzoxaborepin-7-yl)methyleneamino]-N-isobutyl-1,1-dioxo-1,2-benzothiazol-3-amine]

Emax: 77%
Compound: COc1cc(/C=N/N(CC(C)C)C2=NS(=O)(=O)c3ccccc32)cc2c1B(O)OC2 [Ex 48, N-[(E)-(1-hydroxy-7-methoxy-3H-2,1-benzoxaborol-5-yl)methyleneamino]-N-isobutyl-1,1-dioxo-1,2-benzothiazol-3-amine]

Emax: 88% | IC50: 4680 nM
Compound: CC(C)CN(/N=C/c1ccc2c(c1)C(C)OB2O)C1=NS(=O)(=O)c2ccccc21 (stereo not shown) [Ex 49, N-[(E)-(1-hydroxy-3-methyl-3H-2,1-benzoxaborol-5-yl)methyleneamino]-N-isobutyl-1,1-dioxo-1,2-benzothiazol-3-amine]

Emax: 81% | IC50: 5130 nM
Compound: CC1OB(O)c2ccc(/C=N/N(C)C3=NS(=O)(=O)c4ccccc43)cc21 (stereo not shown) [Ex 50, N-[(E)-(1-hydroxy-3-methyl-3H-2,1-benzoxaborol-5-yl)methyleneamino]-N-methyl-1,1-dioxo-1,2-benzothiazol-3-amine]

Emax: 75% | IC50: 8480 nM
Compound: CN(/N=C/c1ccc2c(c1)COB2O)C1=NS(=O)(=O)C2=C1CCCC2 [Ex 51, N-[(E)-(1-hydroxy-3H-2,1-benzoxaborol-5-yl)methyleneamino]-N-methyl-1,1-dioxo-4,5,6,7-tetrahydro-1,2-benzothiazol-3-amine]

Emax: 70% | IC50: 1660 nM
Compound: COc1cc(C2=NN(C3=NS(=O)(=O)c4ccccc43)C(C)CC2)ccc1B(O)O (stereo not shown) [Ex 52, [4-[2-(1,1-dioxo-1,2-benzothiazol-3-yl)-3-methyl-4,5-dihydro-3H-pyridazin-6-yl]-2-methoxy-phenyl]boronic acid]

Emax: 87% | IC50: 3040 nM
Compound: CC1CCC(c2ccc3c(c2)COB3O)=NN1C1=NS(=O)(=O)c2ccccc21 (stereo not shown) [Ex 53, 3-[6-(1-hydroxy-3H-2,1-benzoxaborol-5-yl)-3-methyl-4,5-dihydro-3H-pyridazin-2-yl]-1,2-benzothiazole 1,1-dioxide]

Emax: 76% | IC50: 2350 nM
Compound: COc1cc(OC)c2c(c1)C(N1N=C(c3ccc(B(O)O)c(OC)c3)CCC1C)=NS2(=O)=O (stereo not shown) [Ex 54, [4-[2-(5,7-dimethoxy-1,1-dioxo-1,2-benzothiazol-3-yl)-3-methyl-4,5-dihydro-3H-pyridazin-6-yl]-2-methoxy-phenyl]boronic acid]

Emax: 92% | IC50: 1530 nM
Compound: COc1cc(C2=NN(c3ncnc4c(OC)cccc34)C(C)CC2)ccc1B(O)O (stereo not shown) [Ex 55, [2-methoxy-4-[2-(8-methoxyquinazolin-4-yl)-3-methyl-4,5-dihydro-3H-pyridazin-6-yl]phenyl]boronic acid]

Emax: 84% | IC50: 1000 nM
Compound: COc1cccc2c(N3N=C(c4ccc5c(c4)COB5O)CCC3C)ncnc12 (stereo not shown) [Ex 56, 4-[6-(1-hydroxy-3H-2,1-benzoxaborol-5-yl)-3-methyl-4,5-dihydro-3H-pyridazin-2-yl]-8-methoxy-quinazoline]

Emax: 84% | IC50: 3060 nM
Compound: COc1cc(C2=NN(C3=NS(=O)(=O)c4ccccc43)CC(C)(C)C2)ccc1B(O)O [Ex 57, [4-[2-(1,1-dioxo-1,2-benzothiazol-3-yl)-4,4-dimethyl-3,5-dihydro-pyridazin-6-yl]-2-methoxy-phenyl]boronic acid]
